Tested on: MV-4-11 cells
Experiment: Gene expression microarray analysis (Affymetrix PrimeView) and GSEA
Type: cell-based, human
Parameters: RFU PODN (11730768_x_at) / Fold change /veh PODN (11730768_x_at) / RFU LINC00158 (11744669_a_at) / Fold change /veh LINC00158 (11744669_a_at) / RFU DUSP10 (11751237_a_at) / Fold change /veh DUSP10 (11751237_a_at) / RFU ID3 (11757404_x_at) / Fold change /veh ID3 (11757404_x_at) / RFU PLEKHG5 (11737974_s_at) / Fold change /veh PLEKHG5 (11737974_s_at) / RFU LRRC4B (11730491_at) / Fold change /veh LRRC4B (11730491_at) / RFU GIMAP4 (11747438_a_at) / Fold change /veh GIMAP4 (11747438_a_at) / RFU KRT8 (11758183_x_at) / Fold change /veh KRT8 (11758183_x_at) / RFU CNN1 (11734310_a_at) / Fold change /veh CNN1 (11734310_a_at) / RFU VPS37D (11726825_at) / Fold change /veh VPS37D (11726825_at) / RFU C10orf10 (11716522_x_at) / Fold change /veh C10orf10 (11716522_x_at) / RFU KIR2DL2 /// KIR2DL4 /// KIR2DL5A /// KIR2DL5B /// KIR2DS1 /// KIR2DS2 /// KIR2DS3 /// KIR2DS4 /// KIR3DL3 /// KIR3DL3 /// KIR3DS1 (11738374_at) / Fold change /veh KIR2DL2 /// KIR2DL4 /// KIR2DL5A /// KIR2DL5B /// KIR2DS1 /// KIR2DS2 /// KIR2DS3 /// KIR2DS4 /// KIR3DL3 /// KIR3DL3 /// KIR3DS1 (11738374_at) / RFU C1QL1 (11718748_at) / Fold change /veh C1QL1 (11718748_at) / RFU TMPRSS4 (11747572_a_at) / Fold change /veh TMPRSS4 (11747572_a_at) / RFU HAMP (11756126_x_at) / Fold change /veh HAMP (11756126_x_at) / RFU RNFT2 (11725882_a_at) / Fold change /veh RNFT2 (11725882_a_at) / RFU NR4A2 (11747474_a_at) / Fold change /veh NR4A2 (11747474_a_at) / RFU ABCC12 (11746883_a_at) / Fold change /veh ABCC12 (11746883_a_at) / RFU TMEM136 (11760407_x_at) / Fold change /veh TMEM136 (11760407_x_at) / RFU CLDN22 /// WWC2 (11732394_at) / Fold change /veh CLDN22 /// WWC2 (11732394_at) / RFU HLA-DPB1 (11760878_x_at) / Fold change /veh HLA-DPB1 (11760878_x_at) / RFU SPINT1 (11716480_a_at) / Fold change /veh SPINT1 (11716480_a_at) / RFU GAP43 (11754022_s_at) / Fold change /veh GAP43 (11754022_s_at) / RFU A4GNT (11735810_at) / Fold change /veh A4GNT (11735810_at) / RFU PRB3 (11715151_x_at) / Fold change /veh PRB3 (11715151_x_at) / RFU TUBB4B (11761932_at) / Fold change /veh TUBB4B (11761932_at) / RFU CAPN14 (11732068_a_at) / Fold change /veh CAPN14 (11732068_a_at) / RFU TMCC2 (11721928_a_at) / Fold change /veh TMCC2 (11721928_a_at) / RFU IRGQ (11745062_a_at) / Fold change /veh IRGQ (11745062_a_at) / RFU FAM174B (11720279_a_at) / Fold change /veh FAM174B (11720279_a_at) / RFU TMPRSS4 (11748680_a_at) / Fold change /veh TMPRSS4 (11748680_a_at) / RFU FAM212B (11763350_a_at) / Fold change /veh FAM212B (11763350_a_at) / RFU PLEKHG5 (11743358_a_at) / Fold change /veh PLEKHG5 (11743358_a_at) / RFU ZSCAN30 (11745921_a_at) / Fold change /veh ZSCAN30 (11745921_a_at) / RFU CMKLR1 (11741424_a_at) / Fold change /veh CMKLR1 (11741424_a_at) / RFU LOC101060620 /// MAPK8IP1 (11723275_at) / Fold change /veh LOC101060620 /// MAPK8IP1 (11723275_at) / RFU SPTSSB (11747773_x_at) / Fold change /veh SPTSSB (11747773_x_at) / RFU PRSS12 (11739890_at) / Fold change /veh PRSS12 (11739890_at) / RFU BIN1 (11741810_x_at) / Fold change /veh BIN1 (11741810_x_at) / RFU WNT11 (11732464_a_at) / Fold change /veh WNT11 (11732464_a_at) / RFU C10orf10 (11716521_a_at) / Fold change /veh C10orf10 (11716521_a_at) / RFU C5orf56 (11738089_at) / Fold change /veh C5orf56 (11738089_at) / RFU CYB561 (11721691_x_at) / Fold change /veh CYB561 (11721691_x_at) / RFU ANKRD19P (11752326_a_at) / Fold change /veh ANKRD19P (11752326_a_at) / RFU OR2T12 /// OR2T33 /// OR2T8 (11738714_s_at) / Fold change /veh OR2T12 /// OR2T33 /// OR2T8 (11738714_s_at) / RFU VCAN (11748164_a_at) / Fold change /veh VCAN (11748164_a_at) / RFU JSRP1 (11732532_at) / Fold change /veh JSRP1 (11732532_at) / RFU KRTAP10-11 (11738290_x_at) / Fold change /veh KRTAP10-11 (11738290_x_at) / RFU MYO3A (11730013_a_at) / Fold change /veh MYO3A (11730013_a_at) / RFU EBF3 (11725865_a_at) / Fold change /veh EBF3 (11725865_a_at) / RFU CAMK2N1 (11719241_x_at) / Fold change /veh CAMK2N1 (11719241_x_at) / RFU C5orf56 (11738088_a_at) / Fold change /veh C5orf56 (11738088_a_at) / RFU OLFML3 (11715873_a_at) / Fold change /veh OLFML3 (11715873_a_at) / RFU LOC100653217 /// NTM (11731650_a_at) / Fold change /veh LOC100653217 /// NTM (11731650_a_at) / RFU MAPK11 (11762145_a_at) / Fold change /veh MAPK11 (11762145_a_at) / RFU FIZ1 (11724087_x_at) / Fold change /veh FIZ1 (11724087_x_at) / RFU OASL (11726364_x_at) / Fold change /veh OASL (11726364_x_at) / RFU SOX15 (11748057_x_at) / Fold change /veh SOX15 (11748057_x_at) / RFU CD79A (11719716_a_at) / Fold change /veh CD79A (11719716_a_at) / RFU HIST1H1D (11736915_at) / Fold change /veh HIST1H1D (11736915_at) / RFU CASKIN2 (11723855_a_at) / Fold change /veh CASKIN2 (11723855_a_at) / RFU LOC730098 (11760151_x_at) / Fold change /veh LOC730098 (11760151_x_at) / RFU OR4N2 (11742367_at) / Fold change /veh OR4N2 (11742367_at) / RFU PRRT2 (11749266_a_at) / Fold change /veh PRRT2 (11749266_a_at) / RFU SNX32 (11753110_a_at) / Fold change /veh SNX32 (11753110_a_at) / RFU CDHR5 (11726645_a_at) / Fold change /veh CDHR5 (11726645_a_at) / RFU RCAN1 (11760418_a_at) / Fold change /veh RCAN1 (11760418_a_at) / RFU FAM167A (11723789_a_at) / Fold change /veh FAM167A (11723789_a_at) / RFU FAM26E (11764081_at) / Fold change /veh FAM26E (11764081_at) / RFU ISYNA1 (11749810_s_at) / Fold change /veh ISYNA1 (11749810_s_at) / RFU ACY1 (11761880_at) / Fold change /veh ACY1 (11761880_at) / RFU 11764098_at / Fold change /veh 11764098_at / RFU SAMD14 (11745864_x_at) / Fold change /veh SAMD14 (11745864_x_at) / RFU NPB (11741838_a_at) / Fold change /veh NPB (11741838_a_at) / RFU TMPRSS6 (11731388_a_at) / Fold change /veh TMPRSS6 (11731388_a_at) / RFU KRTAP10-2 (11738614_at) / Fold change /veh KRTAP10-2 (11738614_at) / RFU ARHGAP8 /// PRR5-ARHGAP8 (11727945_x_at) / Fold change /veh ARHGAP8 /// PRR5-ARHGAP8 (11727945_x_at) / RFU KRTAP5-7 /// NADSYN1 (11734609_at) / Fold change /veh KRTAP5-7 /// NADSYN1 (11734609_at) / RFU RASL12 (11751679_a_at) / Fold change /veh RASL12 (11751679_a_at) / RFU CDKN2B (11736163_a_at) / Fold change /veh CDKN2B (11736163_a_at) / RFU PRF1 (11729649_at) / Fold change /veh PRF1 (11729649_at) / RFU, ZNF638 /// ZNF638-IT1 / Fold change vs veh, ZNF638 /// ZNF638-IT1 / RFU, PANK3 / Fold change vs veh, PANK3 / RFU, SH3YL1 / Fold change vs veh, SH3YL1 / RFU, ZEB2 / Fold change vs veh, ZEB2 / RFU, NRIP1 / Fold change vs veh, NRIP1 / RFU, PTTG1IP / Fold change vs veh, PTTG1IP / RFU, CAPN2 / Fold change vs veh, CAPN2 / RFU, MED14 / Fold change vs veh, MED14 / RFU, SNORA58 / Fold change vs veh, SNORA58 / RFU, C1orf63 / Fold change vs veh, C1orf63 / RFU, LRRFIP1 / Fold change vs veh, LRRFIP1 / RFU, NDUFAF7 / Fold change vs veh, NDUFAF7 / RFU, SLC12A2 / Fold change vs veh, SLC12A2 / RFU, IBTK / Fold change vs veh, IBTK / RFU, ESF1 / Fold change vs veh, ESF1 / Fold change vs veh, TMEM50B / RFU, TAOK1 / Fold change vs veh, TAOK1 / RFU, ACBD3 / Fold change vs veh, ACBD3 / RFU, TMA16 / Fold change vs veh, TMA16 / RFU, RWDD3 / Fold change vs veh, RWDD3 / RFU, BCAT1 / Fold change vs veh, BCAT1 / RFU, EDEM3 / Fold change vs veh, EDEM3 / RFU, TMEM33 / Fold change vs veh, TMEM33 / RFU, WDR75 / Fold change vs veh, WDR75 / RFU, AHCTF1 / Fold change vs veh, AHCTF1 / RFU, TFRC / Fold change vs veh, TFRC / RFU, ZDHHC17 / Fold change vs veh, ZDHHC17 / RFU, NOM1 / Fold change vs veh, NOM1 / RFU, ARL8B / Fold change vs veh, ARL8B / RFU, ZBTB11 / Fold change vs veh, ZBTB11 / RFU, TAMM41 / Fold change vs veh, TAMM41 / RFU, KIAA1704 /// LOC100996395 / Fold change vs veh, KIAA1704 /// LOC100996395 / RFU, ING1 / Fold change vs veh, ING1 / RFU, TRMT61B / Fold change vs veh, TRMT61B / RFU, FUBP3 / Fold change vs veh, FUBP3 / RFU, TP53 / Fold change vs veh, TP53 / RFU, TNKS2 / Fold change vs veh, TNKS2 / RFU, ZFP14 / Fold change vs veh, ZFP14 / RFU, ACTR2 / Fold change vs veh, ACTR2 / RFU, PPP3R1 / Fold change vs veh, PPP3R1 / RFU, PIK3R1 / Fold change vs veh, PIK3R1 / RFU, HNRNPA1 / Fold change vs veh, HNRNPA1 / RFU, RNF170 / Fold change vs veh, RNF170 / RFU, ZNF28 / Fold change vs veh, ZNF28 / RFU, RNGTT / Fold change vs veh, RNGTT / RFU, OGT / Fold change vs veh, OGT / RFU, BRD1 / Fold change vs veh, BRD1 / RFU, MARS / Fold change vs veh, MARS / RFU, ZNF655 / Fold change vs veh, ZNF655 / RFU, FAHD1 / Fold change vs veh, FAHD1 / RFU, BDP1 / Fold change vs veh, BDP1 / RFU, LRRCC1 / Fold change vs veh, LRRCC1 / RFU, ARID1A / Fold change vs veh, ARID1A / RFU, ZNF146 / Fold change vs veh, ZNF146 / RFU, ZNF330 / Fold change vs veh, ZNF330 / RFU, GPN3 / Fold change vs veh, GPN3 / RFU, C9orf123 / Fold change vs veh, C9orf123 / RFU, N4BP2L2 / Fold change vs veh, N4BP2L2 / RFU, ARFIP1 / Fold change vs veh, ARFIP1 / RFU, FAM179B / Fold change vs veh, FAM179B / RFU, BCL10 / Fold change vs veh, BCL10 / RFU, UHRF1BP1L / Fold change vs veh, UHRF1BP1L / RFU, BET1 / Fold change vs veh, BET1 / RFU, CNOT2 / Fold change vs veh, CNOT2 / RFU, ZNF268 / Fold change vs veh, ZNF268 / Fold change vs veh, ZNF507 / RFU, DGCR2 / Fold change vs veh, DGCR2 / RFU, WDSUB1 / Fold change vs veh, WDSUB1 / Fold change vs veh, HSP90B1 /// MIR3652 / RFU, ADSS / Fold change vs veh, ADSS / RFU, GK / Fold change vs veh, GK / RFU, ZNF148 / Fold change vs veh, ZNF148 / RFU, TAF9 / Fold change vs veh, TAF9 / RFU, SLC1A5 / Fold change vs veh, SLC1A5 / RFU, SLMO2 / Fold change vs veh, SLMO2 / RFU, ABCC4 / Fold change vs veh, ABCC4 / RFU, LOC101060439 /// RAP1B / Fold change vs veh, LOC101060439 /// RAP1B / RFU, RFX7 / Fold change vs veh, RFX7 / RFU, GTPBP10 / Fold change vs veh, GTPBP10 / RFU, CNEP1R1 / Fold change vs veh, CNEP1R1 / RFU, BIVM-ERCC5 /// ERCC5 / Fold change vs veh, BIVM-ERCC5 /// ERCC5 / RFU, ILF3 / Fold change vs veh, ILF3 / RFU 11762660_at / Fold change /veh 11762660_at / RFU VCAN (11757783_s_at) / Fold change /veh VCAN (11757783_s_at) / RFU DDX43 (11728927_at) / Fold change /veh DDX43 (11728927_at) / RFU KRT8 (11758188_x_at) / Fold change /veh KRT8 (11758188_x_at) / RFU NKD1 (11759106_at) / Fold change /veh NKD1 (11759106_at) / RFU SRD5A1 (11742802_a_at) / Fold change /veh SRD5A1 (11742802_a_at) / RFU TPSAB1 /// TPSB2 (11721975_s_at) / Fold change /veh TPSAB1 /// TPSB2 (11721975_s_at) / RFU GSTM3 (11746129_a_at) / Fold change /veh GSTM3 (11746129_a_at) / RFU IL23R (11737362_x_at) / Fold change /veh IL23R (11737362_x_at) / RFU TMEM51 (11727254_a_at) / Fold change /veh TMEM51 (11727254_a_at) / RFU PIWIL2 (11732686_x_at) / Fold change /veh PIWIL2 (11732686_x_at) / RFU ORM1 (11744905_x_at) / Fold change /veh ORM1 (11744905_x_at) / RFU CCDC152 (11743942_at) / Fold change /veh CCDC152 (11743942_at) / RFU ECM1 (11717891_a_at) / Fold change /veh ECM1 (11717891_a_at) / RFU IL23R (11748794_a_at) / Fold change /veh IL23R (11748794_a_at) / RFU TNFAIP8L3 (11732012_x_at) / Fold change /veh TNFAIP8L3 (11732012_x_at) / RFU MBOAT4 (11741988_at) / Fold change /veh MBOAT4 (11741988_at) / RFU 11764193_at / Fold change /veh 11764193_at / RFU TMEM53 (11763286_at) / Fold change /veh TMEM53 (11763286_at) / RFU MAGEB2 (11727129_at) / Fold change /veh MAGEB2 (11727129_at) / RFU TMEM200A (11744735_a_at) / Fold change /veh TMEM200A (11744735_a_at) / RFU CCDC152 (11751479_a_at) / Fold change /veh CCDC152 (11751479_a_at) / RFU FAM211A (11726209_a_at) / Fold change /veh FAM211A (11726209_a_at) / RFU RGS16 (11746705_a_at) / Fold change /veh RGS16 (11746705_a_at) / RFU VCAN (11755009_s_at) / Fold change /veh VCAN (11755009_s_at) / RFU RHOB (11743442_s_at) / Fold change /veh RHOB (11743442_s_at) / RFU RGS16 (11720943_a_at) / Fold change /veh RGS16 (11720943_a_at) / RFU RGS16 (11720944_at) / Fold change /veh RGS16 (11720944_at) / RFU, VPS4B / Fold change vs veh, VPS4B / RFU, CREB1 / Fold change vs veh, CREB1 / RFU, DNAJC13 / Fold change vs veh, DNAJC13 / RFU, GNAQ / Fold change vs veh, GNAQ / RFU, CDK5R1 / Fold change vs veh, CDK5R1 / RFU, ZRANB3 / Fold change vs veh, ZRANB3 / RFU, CUL4A / Fold change vs veh, CUL4A / RFU, CCNY / Fold change vs veh, CCNY / RFU, UFL1 / Fold change vs veh, UFL1 / RFU, COG3 / Fold change vs veh, COG3 / RFU, DIAPH2 / Fold change vs veh, DIAPH2 / RFU, SKA2 / Fold change vs veh, SKA2 / RFU, AFF3 / Fold change vs veh, AFF3 / RFU, LMF1 / Fold change vs veh, LMF1 / RFU, IPO11 / Fold change vs veh, IPO11 / RFU, DFFB / Fold change vs veh, DFFB / RFU, FOXP1 / Fold change vs veh, FOXP1 / RFU, CARD8 / Fold change vs veh, CARD8 / RFU, STRN3 / Fold change vs veh, STRN3 / RFU, ADK / Fold change vs veh, ADK / RFU, RASSF2 / Fold change vs veh, RASSF2 / RFU, WIPF1 / Fold change vs veh, WIPF1 / RFU, LARP1B / Fold change vs veh, LARP1B / RFU, RASA1 / Fold change vs veh, RASA1 / RFU, RB1 / Fold change vs veh, RB1 / RFU, PPFIA1 / Fold change vs veh, PPFIA1 / RFU, MAT2A / Fold change vs veh, MAT2A / RFU, CCT5 / Fold change vs veh, CCT5 / RFU, WDR92 / Fold change vs veh, WDR92 / RFU, CUX1 / Fold change vs veh, CUX1 / RFU, TTC7A / Fold change vs veh, TTC7A / RFU, TMEM135 / Fold change vs veh, TMEM135 / RFU, DEPTOR / Fold change vs veh, DEPTOR / RFU, CPM / Fold change vs veh, CPM / RFU, DNAJB6 / Fold change vs veh, DNAJB6 / RFU, CACNA2D3 / Fold change vs veh, CACNA2D3 / RFU, DTX4 / Fold change vs veh, DTX4 / RFU, TFCP2 / Fold change vs veh, TFCP2 / RFU, GMCL1 /// GMCL1P1 / Fold change vs veh, GMCL1 /// GMCL1P1 / RFU, AEBP2 / Fold change vs veh, AEBP2 / RFU, SNHG1 /// SNORD22 /// SNORD25 /// SNORD26 /// SNORD27 /// SNORD28 /// SNORD29 /// SNORD31 / Fold change vs veh, SNHG1 /// SNORD22 /// SNORD25 /// SNORD26 /// SNORD27 /// SNORD28 /// SNORD29 /// SNORD31 / Fold change (Aza/veh), C12orf56 (ProbeSet 11735607_a_at) / Fold change (ACY-1035/veh), C12orf56 (ProbeSet 11735607_a_at) / Fold change (Aza/veh), FGFR1OP (ProbeSet 11751329_s_at) / Fold change (ACY-1035/veh), FGFR1OP (ProbeSet 11751329_s_at) / Fold change (Aza/veh), VPS36 (ProbeSet 11739960_a_at) / Fold change (ACY-1035/veh), VPS36 (ProbeSet 11739960_a_at) / RFU SYPL1 (11715823_x_at) / Fold change /veh SYPL1 (11715823_x_at) / RFU IGFBP7 (11715501_s_at) / Fold change /veh IGFBP7 (11715501_s_at) / RFU REEP3 (11722064_at) / Fold change /veh REEP3 (11722064_at) / RFU IGLL1 (11728026_x_at) / Fold change /veh IGLL1 (11728026_x_at): dose or concentration left out as unconfirmed
Conditions: MV-4-11 cells, 48 hours

Nc1ccc(-c2cccs2)cc1NC(=O)c1ccc2c(c1)cc(C1CC1)n2CCN1CCOCC1 [ACY-1035]
Fold change /veh REEP3 (11722064_at): 0.53
